Source: EP0059606A1, “Benzothiopyrano(2,3-d)-v-triazole derivatives and pharmaceutical compositions containing them” (BEECHAM GROUP PLC, priority 1981, dated 1982)

Tested on: rat PCA
Experiment: Passive cutaneous anaphylaxis (PCA) in rats
Assay type: in vivo
Details: iv, 0 h, carrier PBS with NaHCO3, time 0 mins between administration and antigen challenge
Protocol: Serum containing heat labile homocytotropic antibody was raised in rats to crystallised ovalbumin (Grade 3 Sigma) by the Method of I. Mota (Immunology 7, 681 (1964)) using Bordetella pertussis vaccine ([…] Burroughs Welcome) as adjuvant.
Passive cutaneous anaphylaxis (PCA) was carried out by a method based on that of Ovary and Bier, (Proc. Soc. Exp. Bio. Med., 81; 584 (1952)) as modified by Goose and Blair (Immunology, 16, 749 (1969)) Male Sprague Dawley rats 230 - 340 gm were given 0.1 ml of each of six two fold serial dilutions of pooled antiserum in 0.9% saline (Polyfusor Boots) injected intradermally into separate sites on their shaved backs. 72 Hours later the rats were challenged by intravenous injection of 0.3 ml of a 1% solution of ovalbumin in isotonic saline buffered with 0.05M, pH 7.2 Sorenson Buffer (Bactohaemagglutination buffer Difco Laboratories), mixed with 0.2 ml of a 5% solution of Pontamine Sky Blue (6 BX C.l. 24410 Raymond A Lamb) in isotonic saline. The rats were killed after 20 minutes and the diameter of the blue wheals at the antibody injection sites was measured on the outer surface of the skin. The starting dilution of the serum was adjusted so that there was no response, after challenge, at the injection site of the highest dilution and a maximum response at the lowest dilutions. Typically, six twofold serial dilutions of the serum from 1/4 to 1/128 were used.
Compounds were tested for their ability to reduce the diameter of the wheals at those intradermal sites which in control animals gave less than maximum response. Each dose of the compounds was administered to six rats at a measured time prior to intravenous challenge with ovalbumin. Control groups of six rats were given the same volume (0.2 ml: 100g^-1)of carrier fluid at the same time prior to the challenge.
The results were calculated as follows: % inhibition of PCA = 100 (1 - a/b) where a = the sum of the diameters of the wheals produced in the test animal at the sites of antibody dilutions as used in control groups and b = the mean sum of the diameters of the wheals produced in the control group of animals at those antibody sites where at least five out of six of the animals gave less than maximum response. A typical variation in the control group of animals was SEM+ 6%.

| Structure (SMILES) | inhibition in vivo at 0.5 mg/kg [%] | inhibition in vivo at 2 mg/kg [%] | inhibition in vivo at 10 mg/kg [%] | inhibition in vivo at 1 mg/kg [%] |
| --- | --- | --- | --- | --- |
| O=c1c2ccccc2[s+]([O-])c2nn[nH]c12 (racemic) [Example 9b, 9-Oxo-lH,9H-benzothiopyrano[2,3-dl-v-triazole-4-oxide] | 30 | 61 |  |  |
| Cc1ccc2c(c1)C(=O)c1[nH]nnc1S2(=O)=O [Example 4b, 7-Methyl-9-oxo-IH, 9H-benzothiopyrano[2,3-d]-v-triazole-4,4-dioxide] |  |  | 65 |  |
| Cc1ccc2sc3nn[nH]c3c(=O)c2c1 [Example 3d, 7-Nethyl-9-oxo-1H,9H-benzothiopyrano[2,3-d]-v-triazole] |  |  | 42 |  |
| Cc1cc2sc3nn[nH]c3c(=O)c2cc1C [Example 6d, 6,7-Dimethyl-9-oxo-1H,9H-benzothiopyrano[2,3-d]-v-triazole] | 65 | 90 |  | 86 |
| Cc1cc2c(cc1C)S(=O)(=O)c1nn[nH]c1C2=O [Example 7b, 6,7-Dimethyl-9-oxo-lH,9H-benzothiopyrano[2,3-d]-v-triazole-4,4-dioxide] | 56 | 74 |  | 59 |
| O=C1c2ccccc2S(=O)(=O)c2nn[nH]c21 [Example 2b, 9-Oxo-1H,9H-benzothiopyrano[2,3-d]-v-triazole-4,4-dioxide] |  |  | 68 |  |
| O=c1c2ccccc2sc2nn[nH]c12 [Example 1f, 9-Oxo-1H,9H-benzothiopyrano[2,3-d]-v-triazole] |  |  | 90 | 35 |
| COc1ccc2sc3nn[nH]c3c(=O)c2c1 [Example 8d, 7-Methoxy-9-oxo-lH,9H-benzothiopyrano[2,3-dl-v-triazole] | 34 | 58 |  |  |
